Laboratory results: paper PMC8126888 (RSC Medicinal Chemistry, 2020)
Where two headings read alike, the source gives them in different places.

Columns and labels:
in vitro [1] = conditions: mouse, microsomes, intrinsic in vitro clearance, liver microsomes
in vitro [2] = conditions: human, microsomes, intrinsic in vitro clearance, liver microsomes
[3] = system: primary peritoneal mouse macrophages (PMM); assay: cells; conditions: Macrophage
[4] = system: Leishmania infantum MHOM/MA(BE)/67/ITMAP263 intracellular amastigotes; assay: microbe, parasite or virus in culture; conditions: Macrophage, in Mus musculus
in vitro [5] = conditions: human
[6] = system: Trypanosoma cruzi, Tulahuen CL2, beta-galactosidase strain; assay: microbe, parasite or virus in culture; conditions: MRC5, read-out: T. cruzi Tulahuen C4 (LacZ) IC50
[7] = HPLC, Ascentis Express RP Amide column, pH 7.4, elog D, HPLC measured log D, pH 7.4
[8] = read-out: PMM pIC50 (converted)
[9] = read-out: L. inf. pIC50, intracellular amastigotes in PMM (converted), geometric mean of a minimum of two experiments ± standard error
[10] = pH 7.4, Microsome Clint,u Mouse, Table 2
[11] = pH 7.4, Microsome Clint,u Human, Table 2
[12] = HPLC, Ascentis Express RP Amide column, pH 7.4, eLogD, experimental
[13] = read-out: L. Inf. pIC50, from L. infantum intracellular amastigote IC50 (converted)
[14] = read-out: L. infantum MHOM/MA(BE)/67/ITMAP263 intracellular amastigotes IC50, intracellular amastigotes
[15] = read-out: L. Inf. pIC50 (converted)
[16] = read-out: L. infantum MHOM/MA(BE)/67/ITMAP263 intracellular amastigotes IC50

Row | SMILES | microsomal CLint at 0.5 h, 0.5 µM (in vitro [1]; pH 7.4, Microsome Clint Mouse) [µL/min/mg] | chromatographic logD (physchem; [7]) | microsomal CLint at 0.5 h, 0.5 µM (in vitro [2]; pH 7.4, Microsome Clint Human) [µL/min/mg] | IC50 [3, 8] [µM] | IC50 [4, 9] [µM] | further results
1 | COc1ccc(N2CCOCC2)cc1S(=O)(=O)N(Cc1ccc(F)cc1)Cc1ccc(F)cc1 [Compound 25] | 1400 | 4.2 | 421 | > 64.6 | 0.324 | –
2 | CS(=O)(=O)c1ccccc1S(=O)(=O)N(Cc1ccccc1)Cc1ccccc1 [Compound 14] | 2880 | 4 | 417 | > 64.6 | 32.4 | –
3 | COc1ccc(OC)c(S(=O)(=O)N(Cc2ccc(F)cc2)Cc2nc(C)no2)c1 [Compound 36] | – | 3.5 | – | > 64.6 | 7.76 | microsomal CLint at 0.5 h, 0.5 µM (in vitro [1]; [10]): 3050 µL/min/mg; microsomal CLint at 0.5 μM (in vitro [2]; [11]): 350 µL/min/mg
4 | COCCN(Cc1ccc(F)cc1)S(=O)(=O)c1ccccc1OC(F)(F)F [Compound 40] | – | 3.8 | – | > 64.6 | 8.32 | microsomal CLint at 0.5 h, 0.5 µM (in vitro [1]; [10]): 222 µL/min/mg; microsomal CLint at 0.5 h, 0.5 µM (in vitro [2]; [11]): 194 µL/min/mg
5 | N#Cc1ccccc1S(=O)(=O)N(Cc1ccccc1)Cc1ccccc1 [Compound 13] | – | 4.3 | 699 | > 64.6 | 11.2 | –
6 | COc1ccc(OC)c(S(=O)(=O)N(Cc2ccccc2)C2CCN(C(C)=O)CC2)c1 [DNDI0003366132] | – | – | – | – | – | CC50 at 3 days (in vitro [5]): > 64 µM; IC50 [6]: > 64 µM; chromatographic logD (physchem; [12]): 3.1; IC50 ([3]; read-out: PMM IC50): > 64 µM; IC50 [4, 13]: > 64 µM; IC50 [4, 14]: > 64 µM
7 | COc1ccc(OC)c(S(=O)(=O)N(Cc2ccc(F)cc2)c2ccc(F)cc2)c1 [Compound 33] | – | 4.3 | – | > 64.6 | 11.5 | microsomal CLint at 0.5 h, 0.5 µM (in vitro [1]; [10]): 1560 µL/min/mg; microsomal CLint at 0.5 h, 0.5 µM (in vitro [2]; [11]): 482 µL/min/mg
8 | COc1ccc(C#N)cc1S(=O)(=O)N(Cc1ccccc1)Cc1ccccc1 [Compound 17] | – | 4.3 | – | > 64.6 | 0.437 | microsomal CLint at 0.5 μM (in vitro [2]; pH 7.4, Microsome Clint Human): 304 µL/min/mg
9 | COc1ncccc1S(=O)(=O)N(Cc1ccccc1)Cc1ccccc1 [Compound 30] | 2570 | – | – | > 64 | 0.646 | chromatographic logD (physchem; pH 7.4, elog D, HPLC measured log D, pH 7.4): 4.3; microsomal CLint at 0.5 μM (in vitro [2]; pH 7.4, Microsome Clint Human): 849 µL/min/mg
10 | COc1ccc(C(=O)O)cc1S(=O)(=O)N(Cc1ccccc1)Cc1ccccc1 [Compound 20] | 94 | 2.5 | – | > 64.6 | 57.5 | microsomal CLint at 0.5 μM (in vitro [2]; pH 7.4, Microsome Clint Human): < 23 µL/min/mg
11 | COc1ccc(Cl)cc1S(=O)(=O)N(Cc1ccccc1)Cc1ccccc1 [Compound 19] | – | – | – | > 64.6 | 1.38 | microsomal CLint at 0.5 μM (in vitro [1]; pH 7.4, Microsome Clint Mouse): 1350 µL/min/mg; microsomal CLint at 0.5 μM (in vitro [2]; pH 7.4, Microsome Clint Human): 407 µL/min/mg
12 | CCN(CC)C(=O)CN(Cc1ccccc1)S(=O)(=O)c1ccc(OC)c(OC)c1 [DNDI0003363394] | – | – | – | – | – | CC50 at 3 days (in vitro [5]): > 55.4 µM; IC50 [6]: > 55.4 µM; IC50 ([3]; read-out: PMM IC50): > 55.4 µM; IC50 [4, 15]: 32.4 µM; IC50 [4, 16]: 32.1 µM
13 | COc1ncc(C#N)cc1S(=O)(=O)N(Cc1ccc(F)cc1)Cc1ccc(F)cc1 [DNDI0003369123] | – | – | – | – | – | CC50 at 3 days (in vitro [5]): > 64 µM; IC50 [6]: 8.4 µM; chromatographic logD (physchem; [12]): 4.5; IC50 ([3]; read-out: PMM IC50): > 64 µM; IC50 [4, 13]: 7.59 µM; IC50 [4, 14]: 7.6 µM
14 | COc1ccc(S(N)(=O)=O)cc1S(=O)(=O)N(Cc1ccccc1)Cc1ccccc1 [Compound 27] | 884 | 3.6 | 94.1 | > 64.6 | 0.562 | –
15 | COc1ccc(S(=O)(=O)N(CC(=O)NC2CC2)Cc2ccccc2)cc1C [DNDI0003363400] | – | – | – | – | – | CC50 at 3 days (in vitro [5]): > 55.4 µM; IC50 [6]: > 55.4 µM; IC50 ([3]; read-out: PMM IC50): > 55.4 µM; IC50 [4, 15]: > 49.4 µM; IC50 [4, 16]: > 49.4 µM
16 | O=S(=O)(c1ccccc1OC(F)(F)F)N(Cc1ccccc1)Cc1ccccc1 [Compound 15] | – | 5.1 | 92.9 | > 64.6 | 1.1 | microsomal CLint at 0.5 μM (in vitro [1]; pH 7.4, Microsome Clint Mouse): 689 µL/min/mg
